Experimental data from patent US10106504B2, “Pyridin-3-yl acetic acid derivatives as inhibitors of human immunodeficiency virus replication” (priority 2015, dated 2018).
pEC50: −log10 of the molar value. Like-named read-outs stand apart in the source and are kept apart here.

Tested on: NL-RLuc virus
Test: Inhibition of HIV replication (NL-RLuc virus, luciferase readout in MT-2 cells)
Assay type: cell-based
Conditions: Human immunodeficiency virus 1, MT2, 120 h; for pEC50: read-out: Activity; for EC50: read-out: EC50 μM
Excerpt: Inhibition of HIV Replication:
A recombinant NL-RLuc proviral clone was constructed in which a section of the nef gene from NL4-3 was replaced with the Renilla Luciferase gene. This virus is fully infectious and can undergo multiple cycles of replication in cell culture. In addition, the luciferous reporter provides a simple and easy method for quantitating the extent of virus growth and consequently, the antiviral activity of test compounds. The plasmid pNLRLuc contains the proviral NL-Rluc DNA cloned into pUC18 at the PvuII site. The NL-RLuc virus was prepared by transfection of 293T cells with the plasmid pNLRLuc. Transfections were performed using the LipofectAMINE PLUS kit from Invitrogen (Carlsbad, Calif.) according to the manufacturer and the virus generated was titered in MT-2 cells. For susceptibility analyses, the titrated virus was used to infect MT-2 cells in the presence of compound, and after 5 days of incubation, cells were processed and quantitated for virus growth by the amount of expressed luciferase. Assay media was RPMI 1640 supplemented with 10% heat inactivated fetal bovine serum (FBS), 100 units/ml penicillin G/100 units/ml streptomycin, 10 mM HEPES buffer pH 7.55 and 2 mM L-glutamine. The results from at least 2 experiments were used to calculate the EC50 values. Luciferase was quantitated using the Dual Luciferase kit from Promega (Madison, Wis.). Susceptibility of viruses to compounds was determined by incubation in the presence of serial dilutions of the compound. The 50% effective concentration (EC50) was calculated by using the exponential form of the median effect equation where (Fa)=1/[1+(ED50/drug conc.)^m] (Johnson V A, Byington R T. Infectivity Assay. In Techniques in HIV Research. ed. Aldovini A, Walker BD. 71-76. New York: Stockton Press. 1990). Activity equal to A refers to a compound having an EC50<100 nM, while B and C denote compounds having an EC50 between 100 nM and 1 uM (B) or >1 uM (C).

Cc1nc(C)c([C@H](OC(C)(C)C)C(=O)O)c(-c2ccc3c(c2)C(F)(F)CCO3)c1-c1ccc(OCCc2ccc(F)cc2)cc1 [Example 36, (S)-2-(tert-Butoxy)-2-(4-(4,4-difluorochroman-6-yl)-5-(4-(4-fluorophenethoxy)phenyl)-2,6-dimethylpyridin-3-yl)acetic Acid]
pEC50: > 7.00

Cc1cc(N2CCc3cc(-c4c(C)nc(C)c([C@H](OC(C)(C)C)C(=O)O)c4-c4cc(F)c5c(c4)CCCO5)ccc3C2)ncn1 [Example 52, (S)-2-(tert-Butoxy)-2-(4-(8-fluorochroman-6-yl)-2,6-dimethyl-5-(2-(6-methylpyrimidin-4-yl)-1,2,3,4-tetrahydroisoquinolin-6-yl)pyridin-3-yl)acetic Acid]
pEC50: > 7.00

Cc1ccccc1CN1CCc2cc(-c3c(C)nc(C)c([C@H](OC(C)(C)C)C(=O)O)c3-c3cc(F)c4c(c3C)CCCO4)ccc2C1 [Example 40, (2S)-2-(tert-Butoxy)-2-(4-(8-fluoro-5-methylchroman-6-yl)-2,6-dimethyl-5-(2-(2-methylbenzyl)-1,2,3,4-tetrahydroisoquinolin-6-yl)pyridin-3-yl)acetic Acid]
pEC50: > 7.00

Cc1cc(F)ccc1CN1CCc2cc(-c3c(C)nc(C)c([C@H](OC(C)(C)C)C(=O)O)c3-c3ccc4c(c3)CCCO4)ccc2C1 [Example 56, (S)-2-(tert-Butoxy)-2-(4-(chroman-6-yl)-5-(2-(4-fluoro-2-methylbenzyl)-1,2,3,4-tetrahydroisoquinolin-6-yl)-2,6-dimethylpyridin-3-yl)acetic Acid]
pEC50: > 7.00

Cc1nc(N)c(-c2ccc3c(c2)CCN(Cc2cccc(F)c2C)C3)c(-c2ccc3c(c2)CCCO3)c1[C@H](OC(C)(C)C)C(=O)O [Example 61, (S)-2-(6-Amino-4-(chroman-6-yl)-5-(2-(3-fluoro-2-methylbenzyl)-1,2,3,4-tetrahydroisoquinolin-6-yl)-2-methylpyridin-3-yl)-2-(tert-butoxy)acetic acid]
pEC50: > 7.00

Cc1nc(C)c([C@H](OC(C)(C)C)C(=O)O)c(-c2ccc3c(c2)CCCO3)c1-c1ccc2c(c1)CCN(c1ncnc3c1cnn3C)C2 [Example 54, (S)-2-(tert-Butoxy)-2-(4-(chroman-6-yl)-2,6-dimethyl-5-(2-(1-methyl-1H-pyrazolo[3,4-d]pyrimidin-4-yl)-1,2,3,4-tetrahydroisoquinolin-6-yl)pyridin-3-yl)acetic Acid]
pEC50: > 7.00 | EC50: 0.008 µM

Cc1cccc(Cl)c1CN1CCc2cc(-c3c(CN(C)CC4CCOCC4)nc(C)c([C@H](OC(C)(C)C)C(=O)O)c3-c3ccc4c(c3)CCCO4)ccc2C1 [Example 35, (S)-2-(tert-Butoxy)-2-(5-(2-(2-chloro-6-methylbenzyl)-1,2,3,4-tetrahydroisoquinolin-6-yl)-4-(chroman-6-yl)-2-methyl-6-((methyl((tetrahydro-2H-pyran-4-yl)methyl)amino)methyl)pyridin-3-yl)acetic Acid]
pEC50: > 7.00

Cc1ccc(CN2CCc3cc(-c4c(C)nc(C)c([C@H](OC(C)(C)C)C(=O)O)c4-c4ccc5c(c4)CCCO5)ccc3C2)c(C)c1 [Example 28, (S)-2-(tert-Butoxy)-2-(4-(chroman-6-yl)-5-(2-(2,4-dimethylbenzyl)-1,2,3,4-tetrahydroisoquinolin-6-yl)-2,6-dimethylpyridin-3-yl)acetic Acid]
pEC50: > 7.00

COc1ccc(COc2ccc(-c3c(C)nc(C)c([C@H](OC(C)(C)C)C(=O)O)c3-c3ccc(C)cc3)cc2)cc1 [Example 3, (S)-2-(tert-Butoxy)-2-(5-(4-((4-methoxybenzyl)oxy)phenyl)-2,6-dimethyl-4-(p-tolyl)pyridin-3-yl)acetic Acid]
pEC50: 6.00 to 7.00 | EC50: 0.196 µM

CCOCCOCc1nc(C)c([C@H](OC(C)(C)C)C(=O)O)c(-c2ccc3c(c2)CCCO3)c1-c1ccc(OCCc2ccc(F)cc2)cc1 [Example 17, (S)-2-(tert-Butoxy)-2-(4-(chroman-6-yl)-6-((2-ethoxyethoxy)methyl)-5-(4-(4-fluorophenethoxy)phenyl)-2-methylpyridin-3-yl)acetic Acid]
pEC50: > 7.00

Cc1nc(C)c([C@H](OC(C)(C)C)C(=O)O)c(-c2ccc3c(c2)CCCO3)c1-c1ccc(OCCc2ccc(F)cc2)cc1 [Example 9, (S)-2-(tert-Butoxy)-2-(4-(chroman-6-yl)-5-(4-(4-fluorophenethoxy)phenyl)-2,6-dimethylpyridin-3-yl)acetic Acid]
pEC50: > 7.00

Cc1nc(CCCC2CCOCC2)c(-c2ccc(OCCc3ccc(F)cc3)cc2)c(-c2ccc3c(c2)CCCO3)c1[C@H](OC(C)(C)C)C(=O)O [Example 66, (S)-2-(tert-Butoxy)-2-(4-(chroman-6-yl)-5-(4-(4-fluorophenethoxy)phenyl)-2-methyl-6-(3-(tetrahydro-2H-pyran-4-yl)propyl)pyridin-3-yl)acetic Acid]
pEC50: > 7.00 | EC50: 0.006 µM

Cc1cc(N2CCc3cc(-c4c(N)nc(C)c([C@H](OC(C)(C)C)C(=O)O)c4-c4ccc5c(c4)CCCO5)ccc3C2)nc(C)n1 [Example 65, (S)-2-(6-Amino-4-(chroman-6-yl)-5-(2-(2,6-dimethylpyrimidin-4-yl)-1,2,3,4-tetrahydroisoquinolin-6-yl)-2-methylpyridin-3-yl)-2-(tert-butoxy)acetic Acid]
pEC50: > 7.00

COCCNCc1nc(C)c([C@H](OC(C)(C)C)C(=O)O)c(-c2ccc3c(c2)CCCO3)c1-c1ccc(OCCc2ccc(F)cc2)cc1 [Example 12, (S)-2-(tert-Butoxy)-2-(4-(chroman-6-yl)-5-(4-(4-fluorophenethoxy)phenyl)-6-(((2-methoxyethyl)amino)methyl)-2-methylpyridin-3-yl)acetic Acid]
pEC50: > 7.00 | EC50: 0.007 µM

Cc1nc(C)c([C@H](OC(C)(C)C)C(=O)O)c(-c2ccc3c(c2)CCCO3)c1-c1ccc2c(c1)CCNC2 [Example 21, (S)-2-(tert-Butoxy)-2-(4-(chroman-6-yl)-2,6-dimethyl-5-(1,2,3,4-tetrahydroisoquinolin-6-yl)pyridin-3-yl)acetic acid]
pEC50: < 6.00 | EC50: 7.77 µM

Cc1nc(C)c([C@H](OC(C)(C)C)C(=O)O)c(-c2ccc(OCCc3ccc(F)cc3)cc2)c1-c1ccc(OCCc2ccc(F)cc2)cc1 [Example 8, (S)-2-(4,5-Bis(4-(4-fluorophenethoxy)phenyl)-2,6-dimethylpyridin-3-yl)-2-(tert-butoxy)acetic Acid]
pEC50: 6.00 to 7.00

Cc1nc(COC2CCOCC2)c(-c2ccc(OCCc3ccc(F)cc3)cc2)c(-c2ccc3c(c2)CCCO3)c1[C@H](OC(C)(C)C)C(=O)O [Example 15, (S)-2-(tert-Butoxy)-2-(4-(chroman-6-yl)-5-(4-(4-fluorophenethoxy)phenyl)-2-methyl-6-(((tetrahydro-2H-pyran-4-yl)oxy)methyl)pyridin-3-yl)acetic Acid]
pEC50: > 7.00

Cc1ccc(-c2c(-c3ccc4c(c3)CCN(Cc3c(C)cccc3F)C4)c(C)nc(C)c2[C@H](OC(C)(C)C)C(=O)O)cc1 [Example 41, (S)-2-(tert-Butoxy)-2-(5-(2-(2-fluoro-6-methylbenzyl)-1,2,3,4-tetrahydroisoquinolin-6-yl)-2,6-dimethyl-4-(p-tolyl)pyridin-3-yl)acetic Acid]
pEC50: > 7.00

COc1ccc(COc2ccc(-c3c(C)nc(C)c([C@H](OC(C)(C)C)C(=O)O)c3-c3ccc(OCc4ccc(OC)cc4)cc3)cc2)cc1 [Example 4, (S)-2-(4,5-Bis(4-((4-methoxybenzyl)oxy)phenyl)-2,6-dimethylpyridin-3-yl)-2-(tert-butoxy)acetic Acid]
pEC50: 6.00 to 7.00

CCOCCOCCOCc1nc(C)c([C@H](OC(C)(C)C)C(=O)O)c(-c2ccc3c(c2)CCCO3)c1-c1ccc(OCCc2ccc(F)cc2)cc1 [Example 18, (S)-2-(tert-Butoxy)-2-(4-(chroman-6-yl)-6-((2-(2-ethoxyethoxy)ethoxy)methyl)-5-(4-(4-fluorophenethoxy)phenyl)-2-methylpyridin-3-yl)acetic Acid]
pEC50: > 7.00

COc1ccc(COc2ccc(-c3c(C)nc(C)c([C@H](OC(C)(C)C)C(=O)O)c3-c3ccc(Cl)cc3)cc2)cc1 [Example 2, (S)-2-(tert-Butoxy)-2-(4-(4-chlorophenyl)-5-(4-((4-methoxybenzyl)oxy)phenyl)-2,6-dimethylpyridin-3-yl)acetic Acid]
pEC50: > 7.00 | EC50: 0.073 µM

Cc1nc(COCC2COC2)c(-c2ccc(OCCc3ccc(F)cc3)cc2)c(-c2ccc3c(c2)CCCO3)c1[C@H](OC(C)(C)C)C(=O)O [Example 16, (S)-2-(tert-Butoxy)-2-(4-(chroman-6-yl)-5-(4-(4-fluorophenethoxy)phenyl)-2-methyl-6-((oxetan-3-ylmethoxy)methyl)pyridin-3-yl)acetic Acid]
pEC50: > 7.00

Cc1ccc(-c2c(-c3ccc4c(c3)CCN(Cc3ccccc3F)C4)c(C)nc(C)c2[C@H](OC(C)(C)C)C(=O)O)cc1 [Example 42, (S)-2-(tert-Butoxy)-2-(5-(2-(2-fluorobenzyl)-1,2,3,4-tetrahydroisoquinolin-6-yl)-2,6-dimethyl-4-(p-tolyl)pyridin-3-yl)acetic Acid]
pEC50: > 7.00
